From ChEMBL document CHEMBL3045131, “Cyclopenta[b]benzofurans from Aglaia species with pronounced antifungal activity against rice blast fungus (Pyricularia grisea)” (J Agric Food Chem, 2000) come the findings set out here.

≈ marks a conversion by molar mass, not a printed value. Calls of active or inactive are those of the source. No cut-off for these calls is given here.

Common to all, as to format: functional, organism-based
The test system of test [1] is Alternaria citri. As to the kind of experiment: Antifungal activity against Alternaria citri CBS 192.81; VIAM MA1628 assessed as inhibition of spore germination by microdilution technique linked with digital image analysis. In general terms: Broth dilution looks for growth in wells or tubes with falling amounts of substance.
In test [2] the test system is Pyricularia grisea. As to the kind of experiment: Antifungal activity against Magnaporthe grisea VIAM MA1627 assessed as inhibition of spore germination by microdilution technique linked with digital image analysis.
Test [3] deals with Alternaria citri. The experiment in a line: Antifungal activity against Alternaria citri CBS 192.81; VIAM MA1628 assessed as inhibition of spore germination at 200 ug/ml by microdilution technique linked with digital image analysis.
In test [4] the test system is Fusarium avenaceum. As to the kind of experiment: Antifungal activity against Fusarium avenaceum VIAM MA1512 assessed as inhibition of spore germination by microdilution technique linked with digital image analysis.

A word on the EC50: it is the concentration giving half of the maximal effect. Usually EC90 stands for the concentration needed for an effect of 90%. By MIC is commonly meant the lowest concentration that inhibits growth of the organism. With `COc1ccc([C@@]23Oc4cc(OC)cc(OC)c4[C@]2(O)[C@H](O)C[C@H]3c2ccccc2)cc1` [ROCAGLAOL], in test [1], the EC50 turned out to be 6 µg/mL (≈ 13.8 µM), the EC90 was 24 µg/mL (≈ 55.2 µM) and the MIC was 50 µg/mL (≈ 115 µM). In test [2], the EC50 was determined as 0.01 µg/mL (≈ 0.023 µM), the EC90 is 0.3 µg/mL (≈ 0.69 µM) and the MIC came out at 1.6 µg/mL (≈ 3.68 µM). In test [3], the outcome was inactive. For the same compound, in test [4], the EC50 amounted to 0.4 µg/mL (≈ 0.921 µM), the EC90 is 9 µg/mL (≈ 20.7 µM) and the MIC amounted to 25 µg/mL (≈ 57.5 µM).

`COC(=O)[C@H]1[C@@H](O)[C@@]2(O)c3c(OC)cc(OC)cc3O[C@@]2(c2ccc(OC)cc2)[C@@H]1c1ccccc1` [AGLAFOLIN]: in test [1], the EC50 is 44 µg/mL (≈ 89.3 µM), the EC90 amounted to 171 µg/mL (≈ 347 µM) and the MIC came out at 200 µg/mL (≈ 406 µM). In test [2], the EC50 came to 0.05 µg/mL (≈ 0.102 µM), the concentration for an effect of 90% (EC90) was found to be 8 µg/mL (≈ 16.2 µM) and the MIC amounted to 3 µg/mL (≈ 6.09 µM). In test [4], the EC50 came out at 1.6 µg/mL (≈ 3.25 µM), the EC90 is 38 µg/mL (≈ 77.2 µM) and the MIC came out at 100 µg/mL (≈ 203 µM).

Take `COc1ccc([C@@]23Oc4cc(OC)cc(OC)c4[C@]2(O)[C@H](O)[C@H](C(=O)N(C)C)[C@H]3c2ccccc2)cc1` [ROCAGLAMIDE]: the results for the EC50 in test [1], in test [2] and in test [4] were greater than 200 µg/mL, 0.9 µg/mL (≈ 1.78 µM) and 8 µg/mL (≈ 15.8 µM), respectively. Also, the EC90 in test [1] is greater than 200 µg/mL; in test [2], 35 µg/mL (≈ 69.2 µM); in test [4], 66 µg/mL (≈ 131 µM). Also, the values for the MIC in test [1], in test [2] and in test [4] were greater than 200 µg/mL, 25 µg/mL (≈ 49.4 µM) and 200 µg/mL (≈ 396 µM), respectively.

Regarding `CCCCNC(=O)n1c(NC(=O)OC)nc2ccccc21` [BENOMYL], the EC50 in test [1] was greater than 200 µg/mL. In addition, the EC90 in test [1] was greater than 200 µg/mL; in test [2], 84 µg/mL (≈ 289 µM); in test [4], greater than 200 µg/mL. The MIC was greater than 200 µg/mL in test [1], 200 µg/mL (≈ 689 µM) in test [2] and 100 µg/mL (≈ 344 µM) in test [4].

Turning to `CNC(=O)[C@H]1[C@@H](O)[C@@]2(O)c3c(OC)cc(OC)cc3O[C@@]2(c2ccc(OC)cc2)[C@@H]1c1ccccc1` [DESMETHYL ROCAGLAMIDE], in test [2], the EC50 was found to be 7 µg/mL (≈ 14.2 µM), the concentration for an effect of 90% (EC90) is 146 µg/mL (≈ 297 µM) and the minimal inhibitory concentration (MIC) turned out to be 100 µg/mL (≈ 203 µM).

Regarding `COC(=O)[C@@H]1[C@@]2(O)c3c(cc4c(c3OC)OCO4)O[C@]1(c1ccc(OC)cc1)[C@H](c1ccccc1)[C@H]2C(=O)N1CCCC1NC(=O)C(C)C` (some centres not stated) [THAPSAKINACETATE A], in test [2], the EC50 was greater than 200 µg/mL, the EC90 is greater than 200 µg/mL and the MIC was greater than 200 µg/mL.

Consider `COc1ccc([C@]2(C(=O)O)Oc3cc4c(c(OC)c3C(=O)[C@H](C(=O)N3CCCC3NC(=O)C(C)C)[C@H]2c2ccccc2)OCO4)cc1` (some centres not stated) [THAPOXEPINE A], for which, in test [2], the EC50 is greater than 200 µg/mL, the EC90 is greater than 200 µg/mL and the MIC is greater than 200 µg/mL.

Take `COC(=O)[C@H]1[C@@H](O)[C@@]2(O)c3c(cc4c(c3OC)OCO4)O[C@@]2(c2ccc(OC)cc2)[C@@H]1c1ccccc1` [PANNELLIN]: the EC50 is greater than 200 µg/mL in test [1], 0.06 µg/mL (≈ 0.118 µM) in test [2] and 11 µg/mL (≈ 21.7 µM) in test [4]. Further, the EC90 in test [1] was greater than 200 µg/mL; in test [2], 171 µg/mL (≈ 338 µM); in test [4], greater than 200 µg/mL. Moreover, the MIC in test [1] was greater than 200 µg/mL; in test [2], 50 µg/mL (≈ 98.7 µM); in test [4], 200 µg/mL (≈ 395 µM).

Consider `COc1ccc([C@@]23Oc4cc5c(c(OC)c4[C@]2(O)[C@H](O)[C@H](C(=O)N(C)C)[C@H]3c2ccccc2)OCO5)cc1` [AGLAROXIN A], for which, in test [2], the EC50 was 1.4 µg/mL (≈ 2.69 µM), the EC90 was greater than 200 µg/mL and the MIC came out at 100 µg/mL (≈ 192 µM).

As to `COc1ccc(C2C(=O)Oc3cc4c(c(OC)c32)OCO4)cc1` (configuration not stated) [AGLALACTONE], in test [2], the EC50 is greater than 200 µg/mL, the EC90 was greater than 200 µg/mL and the MIC was greater than 200 µg/mL.

With `CN(CC[C@H](N)CC(=O)N[C@H]1C=C[C@H](n2ccc(N)nc2=O)O[C@@H]1C(=O)O)C(=N)N` [BLASTICIDIN_S], the EC50 in test [1] stood at 6 µg/mL (≈ 14.2 µM); in test [4], 0.4 µg/mL (≈ 0.947 µM). Further, the EC90 in test [1] was 53 µg/mL (≈ 125 µM); in test [2], greater than 200 µg/mL; in test [4], 7 µg/mL (≈ 16.6 µM). The MIC in test [1] is 50 µg/mL (≈ 118 µM); in test [2], greater than 200 µg/mL; in test [4], 25 µg/mL (≈ 59.2 µM).
